From publication PMC6445168, “Design, synthesis and antimalarial activity of novel bis{N-[(pyrrolo[1,2-a]quinoxalin-4-yl)benzyl]-3-aminopropyl}amine derivatives” (Journal of Enzyme Inhibition and Medicinal Chemistry, 2017)
Structures can show the parent of a compound that is named as a salt. Where two headings read alike, the source gives them in different places. Values belong to the compound of their own block, whether it stands above or below them.

Key:
[1] = test system: P. falciparum CQ-sensitive strain 3D7; assay: In vitro antiplasmodial activity, SYBR Green I fluorescence-based method, 3D7 strain; format: cell-based, Plasmodium falciparum; settings: for IC50: chloroquine-sensitive strain 3D7, 48 h incubation, read-out: P. falciparum strains IC50 values, 3D7; for Selectivity Index HepG2/3D7: ratio CC50 HepG2 / IC50 3D7
Protocol: (§1) The in vitro antiplasmodial activities were tested over concentrations ranging from 39 nM to 40 μM against culture-adapted Plasmodium falciparum reference strains 3D7 and W2. […] The parasites were cultivated in RPMI medium (Sigma-Aldrich, Lyon, France) supplemented with 0.5% Albumax I (Life Technologies corporation, Paisley, United Kingdom), hypoxanthine (Sigma-Aldrich), gentamicin (Sigma-Aldrich), and human erythrocytes and were incubated at 37 °C in a candle jar, as described previously. The P. falciparum drug susceptibility test was carried out in 96-well flat bottom sterile plates under a final volume of 250 μL. After a 48 h incubation with the drugs, quantities of DNA in treated and control cultures of parasites in human erythrocytes were compared according to the SYBR Green I (Sigma-Aldrich) fluorescence-based method[38]^,[39]. Briefly, after incubation, plates were frozen at -20 °C until use. They were then left to thaw for 2 h at room temperature and 100 μL of the homogenized culture were transferred to 96-well flat bottom sterile black plates (Nunc Inc) already containing 100 μL of the SYBR Green I lysis buffer (2xSYBR Green, 20 mM Tris base pH 7.5, 5 mM EDTA, 0.008% w/v saponin, 0.08% w/v Triton X-100). […] Plates were incubated for 1 h at room temperature and then read on a fluorescence plate reader (Tecan, Austria) using excitation and emission wavelengths of 485 and 535 nm, respectively.

[2] = test system: P. falciparum CQ-resistant strain W2; assay: In vitro antiplasmodial activity, SYBR Green I fluorescence-based method, W2 strain; format: cell-based, Plasmodium falciparum; settings: for IC50: Plasmodium falciparum, chloroquine-resistant strain W2, 48 h incubation, read-out: P. falciparum strains IC50 values, W2; for Selectivity Index HepG2/W2: ratio CC50 HepG2 / IC50 W2
Protocol: as §1

[3] = test system: L. donovani (MHOM/IN/00/DEVI) promastigotes; assay: In vitro antileishmanial activity on promastigotes, MTT assay; format: cell-based; settings: Leishmania donovani, 72 h incubation, mean ± SD of three independent experiments
Protocol: L. donovani (MHOM/IN/00/DEVI) used in this study was provided by the CNR Leishmania (Montpellier, France). The effects of the tested compounds on the growth of L. donovani (MHOM/IN/00/DEVI)promastigotes were assessed by MTT assay[41] .Briefly, promastigotes in log-phase in Schneider′s medium supplemented with 20% fetal calf serum (FCS), 2 mM L-glutamine and antibiotics (100 U/mL penicillin and 100 μg/mL streptomycin), were incubated at an average density of 10^6 parasites/mL in sterile 96-well plates with various concentrations of compounds dissolved in DMSO (final concentration less than 0.5% v/v), in duplicate. Appropriate controls treated by DMSO and pentamidine or amphotericin B (reference drugs purchased from Sigma-Aldrich) were added to each set of experiments. After a 72 h incubation period at 27 °C, parasite metabolic activity was determined. Each plate-well was then microscope-examined for detecting possible precipitate formation. 20 μL of MTT 3–(4,5-dimethylthiazol-2-yl)-2,5-diphenyltetrazolium bromide) solution (5 mg/mL) were added to each well followed by incubation for another 4 h. The enzyme reaction was then stopped by addition of 100 μL of 50% isopropanol – 10% sodium dodecyl sulfate[42] .Plates were shaken vigorously (300 rpm) for 10 minutes and the absorbance measured in a plate reader at 570 nm in a BIO-TEK ELx808 Absorbance Microplate Reader. […] IC50 were calculated by non-linear regression analysis processed on doseresponse curves, using TableCurve 2D V5.0 software. IC50 values represent the mean value calculated from three independent experiments.

[4] = Cytotoxicity evaluation, MTT assay; format: cell-based, human; settings: human, HepG2 cells (hepatocarcinoma cell line, ATCC HB-8065); HepG2, 72 h incubation, mean ± SD of three independent experiments
Protocol: These assays were performed toward the human HepG2 cell line (HepG2 CC50). […] These cells express many of the hepatocyte-specific metabolic enzymes, thus enabling the cytotoxicity of tested product metabolites to be evaluated. […] Duplicate assays were performed for each sample. Each plate-well was then microscope-examined for detecting possible precipitate formation before the medium was aspirated from the wells. 100 μL of MTT solution (0.5 mg/mL in medium without FCS) were then added to each well. […] After this time, the MTT solution was removed and DMSO (100 μL) was added to dissolve the resulting blue formazan crystals. Plates were shaken vigorously (300 rpm) for 5 minutes. The absorbance was measured at 570 nm with 630 nm as reference wavelength spectrophotometer using a BIO-TEK ELx808 Absorbance Microplate Reader. DMSO was used as blank and doxorubicin (Sigma Aldrich) as positive control. Cell viability was calculated as percentage of control (cells incubated without compound). The 50% cytotoxic concentration was determined from the dose-response curve by using the TableCurve 2D V5.0 software (Systat Software, San Jose, CA).

[5] = Plasmodium falciparum, 3D7, 48 h

Structure (SMILES): c1ccc2c(c1)nc(-c1ccc(CNCCCNCCCNCc3ccc(-c4nc5ccccc5n5cccc45)cc3)cc1)c1cccn12 (as salt: ammonium) [1a, Bis{N-[4-(pyrrolo[1,2-a]quinoxalin-4-yl)benzyl]-3-aminopropyl}amine]
melting point: > 260 °C

Structure (SMILES): c1ccc2c(c1)nc(-c1ccc(CNCCCN3CCN(CCCNCc4ccc(-c5nc6ccccc6n6cccc56)cc4)CC3)cc1)c1cccn12 (as salt: ammonium) [1c, Bis{N-[4-(pyrrolo[1,2-a]quinoxalin-4-yl)benzyl]-3-aminopropyl}piperazine]
melting point: > 260 °C

Structure (SMILES): CCOc1ccn2c1c(-c1ccc(CNCCCN(C)CCCNCc3ccc(-c4nc5ccccc5n5ccc(OCC)c45)cc3)cc1)nc1ccccc12 (as salt: ammonium) [1j, Bis{N-[4–(3-ethoxypyrrolo[1,2-a]quinoxalin-4-yl)benzyl]-3-aminopropyl}methylamine]
melting point: 192 to 195 °C

Structure (SMILES): CCOc1ccn2c1c(-c1ccc(CNCCCN3CCN(CCCNCc4ccc(-c5nc6ccccc6n6ccc(OCC)c56)cc4)CC3)cc1)nc1ccccc12 (as salt: ammonium) [1k, Bis{N-[4–(3-ethoxypyrrolo[1,2-a]quinoxalin-4-yl)benzyl]-3-aminopropyl}piperazine]
melting point: 218 to 220 °C

Structure (SMILES): c1ccc2c(c1)cc1c(-c3ccc(CNCCCN4CCN(CCCNCc5ccc(-c6nc7ccccc7n7c6cc6ccccc67)cc5)CC4)cc3)nc3ccccc3n12 (as salt: ammonium) [1q, Bis{N-[4-(indolo[1,2-a]quinoxalin-6-yl)benzyl]-3-aminopropyl}piperazine]
melting point: > 260 °C

Structure (SMILES): COc1ccc2c(c1)nc(-c1ccc(CNCCCN(CCCNCc3ccc(-c4nc5cc(OC)ccc5n5cccc45)cc3)CCCNCc3ccc(-c4nc5cc(OC)ccc5n5cccc45)cc3)cc1)c1cccn12 (as salt: ammonium) [1s, Tris{N-[4–(7-methoxypyrrolo[1,2-a]quinoxalin-4-yl)benzyl]-3-aminopropyl}amine]
melting point: 192 to 194 °C

Structure (SMILES): COc1ccc2c(c1)nc(-c1ccc(CNCCCN(CCCNCc3ccc(-c4nc5cc(OC)ccc5n5cccc45)cc3)CCCNCc3ccc(-c4nc5cc(OC)ccc5n5cccc45)cc3)cc1)c1cccn12 [1s, Tris{N-[4–(7-methoxypyrrolo[1,2-a]quinoxalin-4-yl)benzyl]-3-aminopropyl}amine]
IC50 [1, 5]: 200 ± 40 nM
Selectivity Index HepG2/3D7 [1]: 8.30
IC50 [2]: 290 ± 50 nM
Selectivity Index HepG2/W2 [2]: 5.72
IC50 [3]: ≥ 10000 nM
CC50 at 72 h [4]: 1660 ± 500 nM

Continued, in another order:

melting point: 245 to 248 °C
Structure (SMILES): CN(CCCNCc1ccc(-c2nc3ccccc3n3cccc23)cc1)CCCNCc1ccc(-c2nc3ccccc3n3cccc23)cc1 (as salt: ammonium) [1b, Bis{N-[4-(pyrrolo[1,2-a]quinoxalin-4-yl)benzyl]-3-aminopropyl}methylamine]

melting point: 240 to 242 °C
Structure (SMILES): COc1ccc2nc(-c3ccc(CNCCCN(C)CCCNCc4ccc(-c5nc6ccc(OC)cc6n6cccc56)cc4)cc3)c3cccn3c2c1 (as salt: ammonium) [1f, Bis{N-[4–(8-methoxypyrrolo[1,2-a]quinoxalin-4-yl)benzyl]-3-aminopropyl}methylamine]

melting point: 236 to 239 °C
Structure (SMILES): COc1ccc2nc(-c3ccc(CNCCCN4CCN(CCCNCc5ccc(-c6nc7ccc(OC)cc7n7cccc67)cc5)CC4)cc3)c3cccn3c2c1 (as salt: ammonium) [1g, Bis{N-[4–(8-methoxypyrrolo[1,2-a]quinoxalin-4-yl)benzyl]-3-aminopropyl}piperazine]

melting point: 160 to 162 °C
Structure (SMILES): COc1cccc2nc(-c3ccc(CNCCCN(C)CCCNCc4ccc(-c5nc6cccc(OC)c6n6cccc56)cc4)cc3)c3cccn3c12 (as salt: ammonium) [1h, Bis{N-[4–(9-methoxypyrrolo[1,2-a]quinoxalin-4-yl)benzyl]-3-aminopropyl}methylamine]

melting point: 209 to 211 °C
Structure (SMILES): CN(CCCNCc1cccc(-c2nc3ccccc3n3cccc23)c1)CCCNCc1cccc(-c2nc3ccccc3n3cccc23)c1 (as salt: ammonium) [1m, Bis{N-[3-(pyrrolo[1,2-a]quinoxalin-4-yl)benzyl]-3-aminopropyl}methylamine]

melting point: 188 to 191 °C
Structure (SMILES): COc1ccc2nc(-c3cccc(CNCCCN(C)CCCNCc4cccc(-c5nc6ccc(OC)cc6n6cccc56)c4)c3)c3cccn3c2c1 (as salt: ammonium) [1o, Bis{N-[3–(8-methoxypyrrolo[1,2-a]quinoxalin-4-yl)benzyl]-3-aminopropyl}methylamine]

melting point: 234 to 237 °C
Structure (SMILES): COc1ccc2nc(-c3cccc(CNCCCN4CCN(CCCNCc5cccc(-c6nc7ccc(OC)cc7n7cccc67)c5)CC4)c3)c3cccn3c2c1 (as salt: ammonium) [1p, Bis{N-[3–(8-methoxypyrrolo[1,2-a]quinoxalin-4-yl)benzyl]-3-aminopropyl}piperazine]

melting point: 184 to 187 °C
Structure (SMILES): COc1ccc2nc(-c3cccc(CNCCCN(CCCNCc4cccc(-c5nc6ccc(OC)cc6n6cccc56)c4)CCCNCc4cccc(-c5nc6ccc(OC)cc6n6cccc56)c4)c3)c3cccn3c2c1 (as salt: ammonium) [1t, Tris{N-[3–(8-methoxypyrrolo[1,2-a]quinoxalin-4-yl)benzyl]-3-aminopropyl}amine]

melting point: 141 to 144 °C
Structure (SMILES): COc1ccc2nc(-c3cccc(CNCCOCCOCCOCCNCc4cccc(-c5nc6ccc(OC)cc6n6cccc56)c4)c3)c3cccn3c2c1 (as salt: ammonium) [1u, N,N′-[oxybis(2,1-ethanediyloxy-2,1-ethanediyl)]bis-3–(8-methoxypyrrolo[1,2-a]quinoxalin-4-yl)benzylamine]

IC50 [1, 5]: 240 ± 30 nM
IC50 [2]: 190 ± 20 nM
IC50 [3]: ≥ 10000 nM
Structure (SMILES): COc1ccc2nc(-c3cccc(CNCCCN(CCCNCc4cccc(-c5nc6ccc(OC)cc6n6cccc56)c4)CCCNCc4cccc(-c5nc6ccc(OC)cc6n6cccc56)c4)c3)c3cccn3c2c1 [1t, Tris{N-[3–(8-methoxypyrrolo[1,2-a]quinoxalin-4-yl)benzyl]-3-aminopropyl}amine]
Selectivity Index HepG2/3D7 [1]: 7.17
Selectivity Index HepG2/W2 [2]: 9.05
CC50 at 72 h [4]: 1720 ± 600 nM

IC50 [1, 5]: ~80 nM
IC50 [1]: 76 ± 9 nM
IC50 [2]: 250 ± 80 nM
IC50 [3]: ≥ 10000 nM
Structure (SMILES): COc1ccc2nc(-c3cccc(CNCCOCCOCCOCCNCc4cccc(-c5nc6ccc(OC)cc6n6cccc56)c4)c3)c3cccn3c2c1 [1u, N,N′-[oxybis(2,1-ethanediyloxy-2,1-ethanediyl)]bis-3–(8-methoxypyrrolo[1,2-a]quinoxalin-4-yl)benzylamine]
Selectivity Index HepG2/3D7 [1]: 20.26
Selectivity Index HepG2/W2 [2]: 6.16
CC50 at 72 h [4]: 1540 ± 700 nM
